Target: tryptophanase of Bacteroides thetaiotamicron (Bacteroides thetaiotaomicron, UniProt Q8A7N2)
Assay: Tryptophanase enzyme inhibitory activity (LDH-coupled NADH loss)
Format: biochemical
Details: L-tryptophan 10 mM, 37° C., absorbance at 340 nm; read-out: Bacteroides Activity of Inhibiting Tryptophanase (IC50)
Procedure: Tryptophanase inhibitory activity was evaluated by a method using lactate dehydrogenase (LDH). The reaction time-dependent reduction in NADH conjugated with the enzymatic reaction, with LDH, of pyruvic acid produced through the enzymatic reaction of L-tryptophan as a substrate with tryptophanase, was measured with a spectrophotometer (Phillips-R S et al., Biochemistry, 23, 6228-6234 (1984)). Enzyme inhibitory activity obtained without adding a test compound (by adding DMSO alone) in the presence of tryptophanase was used as a control. As the enzyme, tryptophanase of Bacteroides thetaiotamicron (Genbank accession number: HC914434.1) was used. A test compound solution was prepared by dissolving each test compound in DMSO in an arbitrary concentration (from 30 mM to 30 nM at 10-fold common ratio). LDH, NADH and L-tryptophan were prepared, using distilled water, respectively to concentrations of 80 units/mL, 10 mM and […]. Bacteroides tryptophanase was prepared to 30 mg/mL. A potassium phosphate buffer was used as the buffer. [table] A reaction solution A was dispensed at 284.8 μL per well into a 96-well plate, and the test compound solution was added at 3.2 μL per well to obtain a final concentration of 1/100 (reaction solution B). The reaction solution B was incubated at 37° C. for 30 minutes, L-tryptophan was added thereto at 32 μL per well to obtain a final concentration of 10 mM (reaction solution C), and the enzyme reaction was performed at 37° C. over 30 minutes with absorbance at 340 nm measured for monitoring the NADH loss. Based on the NADH loss, the tryptophanase inhibitory activity of the compound was evaluated. Besides, the following compounds were similarly tested instead of the test compound.

tryptophanase of Bacteroides thetaiotamicron, sequence (Q8A7N2 entry or part of it, change not shown): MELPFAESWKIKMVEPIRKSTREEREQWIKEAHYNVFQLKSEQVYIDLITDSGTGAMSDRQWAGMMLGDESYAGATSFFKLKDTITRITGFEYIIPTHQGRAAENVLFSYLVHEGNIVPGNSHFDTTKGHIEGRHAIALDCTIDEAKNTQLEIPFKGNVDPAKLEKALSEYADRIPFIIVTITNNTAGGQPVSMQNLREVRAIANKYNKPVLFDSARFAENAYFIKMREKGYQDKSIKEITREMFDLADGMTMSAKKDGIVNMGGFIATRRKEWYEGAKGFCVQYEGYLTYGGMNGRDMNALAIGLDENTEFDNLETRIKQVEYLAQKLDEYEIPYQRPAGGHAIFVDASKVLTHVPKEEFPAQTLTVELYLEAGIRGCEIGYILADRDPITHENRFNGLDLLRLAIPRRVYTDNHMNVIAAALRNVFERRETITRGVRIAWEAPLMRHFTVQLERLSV

SMILES | IC50
CCC(CC)(NC(=O)Nc1ccc(OC(F)(F)F)cc1)C(=O)O [Example 1, 2-Ethyl-2-({[4-(trifluoromethoxy)phenyl]carbamoyl}amino)butanoic acid] | 3.7 µM
CC(NC(=O)Nc1ccc(OC(F)(F)F)cc1)(C(=O)O)C1CC1 (centres unmarked) [Example 2, 2-Cyclopropyl-2-({[4-(trifluoromethoxy)phenyl]carbamoyl}amino)propanoic acid] | 20.3 µM
CC(C)CC(C)(NC(=O)Nc1ccc(OC(F)(F)F)cc1)C(=O)O (centres unmarked) [Example 3, 2-Methyl-N-{[4-(trifluoromethoxy)phenyl]carbamoyl}leucine] | 8.7 µM
CC[C@@](C)(NC(=O)Nc1ccc(OC(F)(F)F)cc1)C(=O)O [Example 4, (−)-N-{[4-(Trifluoromethoxy)phenyl]carbamoyl}-D-isovaline] | 8.8 µM
O=C(Nc1ccc(OC(F)(F)F)cc1)NC(C(=O)O)(C1CC1)C1CC1 [Example 5, Dicyclopropyl({[4-(trifluoromethoxy)phenyl]carbamoyl}amino)acetic acid] | 1.7 µM
CCCC(CC)(NC(=O)Nc1ccc(OC(F)(F)F)cc1)C(=O)O (centres unmarked) [Example 6, 2-Ethyl-N-{[4-(trifluoromethoxy)phenyl]carbamoyl}norvaline] | 5.3 µM
CCC(NC(=O)Nc1ccc(OC(F)(F)F)cc1)(C(=O)O)C1CC1 (centres unmarked) [Example 7, 2-Cyclopropyl-2-({[4-(trifluoromethoxy)phenyl]carbamoyl}amino)butanoic acid] | 0.3 µM
O=C(Nc1ccc(OC(F)F)cc1)NC(C(=O)O)(C1CC1)C1CC1 [Example 10, Dicyclopropyl({[4-(difluoromethoxy)phenyl]carbamoyl}amino)acetic acid] | 1.9 µM
CCC(NC(=O)Nc1ccc(OC(F)F)cc1)(C(=O)O)C1CC1 (centres unmarked) [Example 11, 2-Cyclopropyl-2-({[4-(difluoromethoxy)phenyl]carbamoyl}amino)butanoic acid] | 0.6 µM
CC[C@@](C)(NC(=O)Nc1ccc(CC(F)(F)F)cc1)C(=O)O [Example 13, N-{[4-(2,2,2-Trifluoroethyl)phenyl]carbamoyl}-D-isovaline] | 6.7 µM
CCC(CC)(NC(=O)Nc1ccc(SC(F)(F)F)cc1)C(=O)O [Example 14, 2-Ethyl-2-[({4-[(trifluoromethyl)sulfanyl]phenyl}carbamoyl)amino]butanoic acid] | 0.4 µM
CCC(CC)(NC(=O)Nc1ccc(OC(F)F)cc1F)C(=O)O [Example 16, 2-({[4-(Difluoromethoxy)-2-fluorophenyl]carbamoyl}amino)-2-ethylbutanoic acid] | 4.2 µM
CC[C@@](C)(NC(=O)Nc1ccc(OC(F)F)cc1F)C(=O)O [Example 17, N-{[4-(Difluoromethoxy)-2-fluorophenyl]carbamoyl}-D-isovaline] | 12.3 µM
CC[C@@](C)(NC(=O)Nc1ccc(OC(F)F)c(Cl)c1)C(=O)O [Example 18, N-{[3-Chloro-4-(difluoromethoxy)phenyl]carbamoyl}-D-isovaline] | 5.3 µM
CC[C@@](C)(NC(=O)Nc1ccc(OC(F)(F)F)c(C#N)c1)C(=O)O [Example 19, N-{[3-Cyano-4-(trifluoromethoxy)phenyl]carbamoyl}-D-isovaline] | 35.6 µM
CCC(CC)(NC(=O)Nc1ccc(C(F)(F)F)cc1)C(=O)O [Example 20, 2-Ethyl-2-({[4-(trifluoromethyl)phenyl]carbamoyl}amino)butanoic acid] | 11.6 µM
O=C(Nc1ccccc1)NC(C(=O)O)(C1CC1)C1CC1 [Example 21, Dicyclopropyl[(phenylcarbamoyl)amino]acetic acid] | 5 µM
CCC(NC(=O)Nc1ccccc1)(C(=O)O)C1CC1 (centres unmarked) [Example 22, 2-Cyclopropyl-2-[(phenylcarbamoyl)amino]butanoic acid] | 2.1 µM

SMILES | IC50
CCC(NC(=O)Nc1ccc(F)cc1)(C(=O)O)C1CC1 (centres unmarked) [Example 23, 2-Cyclopropyl-2-{[(4-fluorophenyl)carbamoyl]amino}butanoic acid] | 5.2 µM
CC[C@@](C)(NC(=O)Nc1cccc(F)c1)C(=O)O [Example 24, N-[(3-Fluorophenyl)carbamoyl]-D-isovaline] | 33.2 µM
CC[C@@](C)(NC(=O)Nc1cccc(Cl)c1)C(=O)O [Example 26, N-[(3-Chlorophenyl)carbamoyl]-D-isovaline] | 13.2 µM
CCC(CC)(NC(=O)Nc1ccc(Cl)s1)C(=O)O [Example 28, 2-{[(5-Chlorothiophen-2-yl)carbamoyl]amino}-2-ethylbutanoic acid] | 3.2 µM
CC[C@@](C)(NC(=O)Nc1ccc(Cl)c(Cl)c1)C(=O)O [Example 29, N-[(3,4-Dichlorophenyl)carbamoyl]-D-isovaline] | 15.5 µM
CCC(NC(=O)Nc1cccc(C#N)c1)(C(=O)O)C1CC1 (centres unmarked) [Example 32, 2-{[(3-Cyanophenyl)carbamoyl]amino}-2-cyclopropylbutanoic acid] | 1 µM
N#Cc1cccc(NC(=O)NC(C(=O)O)(C2CC2)C2CC2)c1 [Example 34, {[(3-Cyanophenyl)carbamoyl]amino}(dicyclopropyl)acetic acid] | 1.8 µM
N#Cc1ccc(NC(=O)NC(C(=O)O)(C2CC2)C2CC2)cc1 [Example 35, {[(4-Cyanophenyl)carbamoyl]amino}(dicyclopropyl)acetic acid] | 10.9 µM
CCC(CC)(NC(=O)Nc1cc(F)cc(C#N)c1)C(=O)O [Example 36, 2-{[(3-Cyano-5-fluorophenyl)carbamoyl]amino}-2-ethylbutanoic acid] | 20.1 µM
CCC(CC)(NC(=O)Nc1ccc(Cl)c(C#N)c1)C(=O)O [Example 37, 2-{[(4-Chloro-3-cyanophenyl)carbamoyl]amino}-2-ethylbutanoic acid] | 25 µM
N#CCc1ccc(NC(=O)NC(C(=O)O)(C2CC2)C2CC2)cc1 [Example 38, ({[4-(Cyanomethyl)phenyl]carbamoyl}amino)(dicyclopropyl)acetic acid] | 3.4 µM
CCC(CC)(NC(=O)Nc1ccc(C2(C#N)CC2)cc1)C(=O)O [Example 39, 2-({[4-(1-Cyanocyclopropyl)phenyl]carbamoyl}amino)-2-ethylbutanoic acid] | 5.2 µM
CCC(CC)(NC(=O)Nc1ccc(C(C)C#N)cc1)C(=O)O (centres unmarked) [Example 40, 2-({[4-(1-Cyanoethyl)phenyl]carbamoyl}amino)-2-ethylbutanoic acid] | 5.8 µM
CCC(CC)(NC(=O)Nc1ccc(-c2ccccc2)cc1)C(=O)O [Example 41, 2-[(Biphenyl-4-ylcarbamoyl)amino]-2-ethylbutanoic acid] | 0.3 µM
CCC(CC)(NC(=O)Nc1ccc(-c2ccccc2F)cc1)C(=O)O [Example 42, 2-Ethyl-2-{[(2′-fluorobiphenyl-4-yl)carbamoyl]amino}butanoic acid] | 0.1 µM
CCC(CC)(NC(=O)Nc1ccc(N2CCCCC2)cc1)C(=O)O [Example 43] | 1.6 µM
CCC(CC)(NC(=O)Nc1ccc(N2CCC(F)(F)C2)cc1)C(=O)O [Example 44, 2-({[4-(3,3-Difluoropyrrolidine-1-yl)phenyl]carbamoyl}amino)-2-ethylbutanoic acid] | 2.5 µM

From patent publication US10968169B2, “Urea derivative” (Daiichi Sankyo Company, Limited, priority 2016, dated 2021)
